In ChEMBL document CHEMBL5352429, “Designed symmetrical β-hairpin peptides for treating multidrug-resistant salmonella typhimurium infections” (Eur J Med Chem, 2022):
≈ marks a conversion by molar mass, not a printed value. Calls of active or inactive are those of the source. No cut-off for these calls is given here. Peptide text beside a SMILES is read from it.

Assays:
Salmonella paratyphi = assay: Antibacterial activity against Salmonella paratyphi A CICC 21501 incubated overnight by standard microtiter dilution method; type: functional, Salmonella enterica subsp. enterica serovar Paratyphi A; conditions: Salmonella enterica
[1] = test system: Salmonella enterica subsp. enterica serovar Paratyphi B; assay: Antibacterial activity against Salmonella paratyphi B CICC 21495 incubated overnight by standard microtiter dilution method; type: functional
[2] = Antibacterial activity against Salmonella wandsworth CICC 21504 incubated overnight by standard microtiter dilution method; type: functional, Salmonella enterica subsp. enterica serovar Wandsworth; conditions: Salmonella enterica
Salmonella typhimurium [3] = assay: Antibacterial activity against Salmonella typhimurium CICC 21483 incubated overnight by standard microtiter dilution method; type: functional, Salmonella enterica subsp. enterica serovar Typhimurium; conditions: Salmonella enterica
[4] = Antibacterial activity against Salmonella blockley CICC 21489 incubated overnight by standard microtiter dilution method; type: functional, Salmonella enterica subsp. enterica serovar Blockley; conditions: Salmonella enterica
[5] = Antibacterial activity against Salmonella dublin CICC 21497 incubated overnight by standard microtiter dilution method; type: functional, Salmonella enterica subsp. enterica serovar Dublin; conditions: Salmonella enterica
Salmonella typhimurium [6] = assay: Antibacterial activity against Salmonella typhimurium DT104 ATCC 700408 incubated overnight by standard microtiter dilution method; type: functional, Salmonella enterica subsp. enterica serovar Typhimurium; conditions: Salmonella enterica
Candida albicans = assay: Antifungal activity against Candida albicans ATCC 10231 incubated overnight by standard microtiter dilution method; type: functional
Erythrocyte = assay: Hemolytic activity in human Red blood cells assessed as hemolysis incubated for 1 hrs by absorbance based microplate reader analysis; type: toxicity, cell-based
Salmonella typhimurium [7] = assay: Antibacterial activity against Salmonella typhimurium DT104 in the presence 50% inactivated mouse serum by MH broth based assay; type: functional, Salmonella enterica subsp. enterica serovar Typhimurium; conditions: Salmonella enterica
Salmonella typhimurium [8] = assay: Antibacterial activity against multi-drug resistant Salmonella typhimurium DT104 assessed as inhibition of bacterial growth measured upto 120 mins by MH agar based serial dilution method; type: functional, organism-based; conditions: Salmonella enterica subsp. enterica serovar Typhimurium
Salmonella typhimurium [9] = assay: Antibacterial activity against Salmonella typhimurium DT104 infected in mouse RAW264.7 cells assessed as log reduction in bacterial colony count at 1 times of MIC measured after 90 mins by MH agar based serial dilution method; type: functional, Salmonella enterica subsp. enterica serovar Typhimurium; conditions: 1.5 h
[10] = Cytotoxicity against mouse RAW264.7 cells infected with Salmonella typhimurium DT104 assessed as cell viability at 1 times of MIC measured at 180 min by MTT assay; type: toxicity, cell-based; conditions: RAW264.7 cells infected with Salmonella typhimurium DT104, read-out: Activity
RAW264.7 [11] = assay: Anti-inflammatory activity in mouse RAW264.7 cells assessed as inhibition of LPS-induced TNF-alpha mRNA expression at 15 ug/ml preincubated with compound for 30 mins followed by LPS stimulation and measured after 4 hrs by RT-PCR analysis; type: functional, cell-based; conditions: dose 15.0 µg/ml, time 4.5 hrs
RAW264.7 [12] = assay: Anti-inflammatory activity in mouse RAW264.7 cells assessed as inhibition of LPS-induced IL-8 mRNA expression at 15 ug/ml preincubated with compound for 30 mins followed by LPS stimulation and measured after 4 hrs by RT-PCR analysis; type: functional, cell-based; conditions: dose 15.0 µg/ml, time 4.5 hrs
RAW264.7 [13] = assay: Anti-inflammatory activity in mouse RAW264.7 cells assessed as inhibition of LPS-induced IL-10 mRNA expression at 15 ug/ml preincubated with compound for 30 mins followed by LPS stimulation and measured after 4 hrs by RT-PCR analysis; type: functional, cell-based; conditions: dose 15.0 µg/ml, time 4.5 hrs
RAW264.7 [14] = assay: Inhibition of LPS-stimulated IL-1beta production in mouse RAW264.7 cells at 1 to 128 ug/ml incubated for 24 hrs by ELISA analysis; type: functional, cell-based; conditions: dose 1-128 µg/ml
RAW264.7 [15] = assay: Inhibition of LPS-stimulated IL-8 production in mouse RAW264.7 cells at 1 to 128 ug/ml incubated for 24 hrs by ELISA analysis; type: functional, cell-based; conditions: dose 1-128 µg/ml
Salmonella typhimurium [16] = assay: Antibacterial activity against multi-drug resistant Salmonella typhimurium DT104 infected in ICR mouse model assessed as reduction in bacterial population in fecus at 2 mg/kg, ip administered for 3 days; type: functional, organism-based; conditions: Salmonella enterica subsp. enterica serovar Typhimurium, time 3.0 day
Salmonella typhimurium [17] = assay: Antibacterial activity against Salmonella typhimurium DT104 infected in ICR mouse model assessed as reduction in bacterial translocation to liver at 2 mg/kg, ip administered for 3 days and measured on day 7 by serial dilution method; type: functional, organism-based; conditions: Salmonella enterica subsp. enterica serovar Typhimurium, time 7.0 day
Salmonella typhimurium [18] = assay: Antibacterial activity against Salmonella typhimurium DT104 infected in ICR mouse model assessed as reduction in bacterial translocation to spleen at 2 mg/kg, ip administered for 3 days and measured on day 7 by serial dilution method; type: functional, organism-based; conditions: Salmonella enterica subsp. enterica serovar Typhimurium, time 7.0 day
Salmonella typhimurium [19] = assay: Antibacterial activity against Salmonella typhimurium DT104 assessed as reduction in IL-8 mRNA level in ileum at 20 mg/kg, ip administered for 3 days and measured on day 7 by RT-PCR analysis; type: functional, organism-based; conditions: Salmonella enterica subsp. enterica serovar Typhimurium, time 7.0 day
Salmonella typhimurium [20] = assay: Antibacterial activity against Salmonella typhimurium DT104 assessed as reduction in IL-4 mRNA level in ileum at 20 mg/kg, ip administered for 3 days and measured on day 7 by RT-PCR analysis; type: functional, organism-based; conditions: Salmonella enterica subsp. enterica serovar Typhimurium, time 7.0 day
Salmonella typhimurium [21] = assay: Antibacterial activity against Salmonella typhimurium DT104 assessed as reduction in IL-15 mRNA level in ileum at 20 mg/kg, ip administered for 3 days and measured on day 7 by RT-PCR analysis; type: functional, organism-based; conditions: Salmonella enterica subsp. enterica serovar Typhimurium, time 7.0 day
Salmonella typhimurium [22] = assay: Antibacterial activity against Salmonella typhimurium DT104 assessed as reduction in IL-1beta production in serum at 20 mg/kg, ip administered for 3 days and measured on day 7; type: functional, organism-based; conditions: Salmonella enterica subsp. enterica serovar Typhimurium, time 7.0 day
Salmonella typhimurium [23] = assay: Antibacterial activity against Salmonella typhimurium DT104 assessed as reduction in IL-8 production in serum at 20 mg/kg, ip administered for 3 days and measured on day 7; type: functional, organism-based; conditions: Salmonella enterica subsp. enterica serovar Typhimurium, time 7.0 day
Salmonella typhimurium [24] = assay: Antibacterial activity against Salmonella typhimurium DT104 assessed as increase in ZO-1 mRNA level in colon at 20 mg/kg, ip administered for 3 days and measured on day 7 by RT-PCR analysis; type: functional, organism-based; conditions: Salmonella enterica subsp. enterica serovar Typhimurium, time 7.0 day
Salmonella typhimurium [25] = assay: Antibacterial activity against Salmonella typhimurium DT104 infected in ICR mouse model assessed as increase in ZO-1 expression in villous at 20 mg/kg, ip administered for 3 days and measured on day 7 […] by immunohistochemistry analysis; type: functional, organism-based; conditions: Salmonella enterica subsp. enterica serovar Typhimurium, time 7.0 day
Salmonella typhimurium [26] = assay: Antibacterial activity against Salmonella typhimurium DT104 infected in ICR mouse model assessed as alleviation of villi shortening at 20 mg/kg, ip administered for 3 days and measured on day 7 by H&E staining based analysis; type: functional, organism-based; conditions: Salmonella enterica subsp. enterica serovar Typhimurium, time 7.0 day
Cell membrane [27] = assay: Induction of cytoplasmic membrane depolarization in Salmonella typhimurium DT104 assessed as increase in fluorescence intensity at 2 times of MIC incubated for 15 mins by DiSC3-5 dye based fluorescence method; type: subcellular; conditions: Salmonella enterica subsp. enterica serovar Typhimurium
Cell membrane [28] = assay: Disruption of membrane integrity in Salmonella typhimurium DT104 assessed as increase in red fluorescence at 1 times of MIC incubated for 60 mins by PI and SYTO9 staining based confocal laser scanning microscopic analysis; type: subcellular; conditions: Salmonella enterica subsp. enterica serovar Typhimurium
Cell membrane [29] = assay: Induction of membrane damage in Salmonella typhimurium DT104 assessed as membrane stunting at 1 times of MIC incubated for 60 mins by atomic force microscopic analysis; type: subcellular; conditions: Salmonella enterica subsp. enterica serovar Typhimurium
Cell membrane [30] = assay: Induction of membrane damage in Salmonella typhimurium DT104 assessed as membrane devastation at 1 times of MIC incubated for 60 mins by atomic force microscopic analysis; type: subcellular; conditions: Salmonella enterica subsp. enterica serovar Typhimurium
Cell membrane [31] = assay: Induction of membrane damage in Salmonella typhimurium DT104 assessed as substantial damage to bacterial envelope at 1 times of MIC incubated for 60 mins by transmission electron microscopic analysis; type: subcellular; conditions: Salmonella enterica subsp. enterica serovar Typhimurium
Cell membrane [32] = assay: Induction of membrane damage in Salmonella typhimurium DT104 assessed as cytoplasmic outflow at 1 times of MIC incubated for 15 mins by confocal laser scanning microscopic analysis; type: subcellular; conditions: Salmonella enterica subsp. enterica serovar Typhimurium

For `C[C@@H](O)[C@H](NC(=O)[C@H](CS)NC(=O)[C@H](CCCCN)NC(=O)[C@H](Cc1c[nH]c2ccccc12)NC(=O)[C@H](CCCCN)NC(=O)[C@@H](N)Cc1c[nH]c2ccccc12)C(=O)N[C@@H](CCCCN)C(=O)N[C@@H](CO)C(=O)NCC(=O)N[C@@H](CS)C(=O)N[C@@H](CCCCN)C(=O)N[C@@H](Cc1c[nH]c2ccccc12)C(=O)N[C@@H](CCCCN)C(=O)N[C@@H](Cc1c[nH]c2ccccc12)C(N)=O` (H-WKWKCTKSGCKWKW-NH2), the MIC (Salmonella paratyphi) was 8 µg/mL (≈ 4.31 µM), the MIC [1] was 1 µg/mL (≈ 0.539 µM) and the MIC [2] was 8 µg/mL (≈ 4.31 µM). For the same compound, the MIC (Salmonella typhimurium [3]) was 4 µg/mL (≈ 2.16 µM), the MIC [4] was 8 µg/mL (≈ 4.31 µM) and the MIC [5] was 8 µg/mL (≈ 4.31 µM). It also gave an MIC (Salmonella typhimurium [6]) of 4 µg/mL (≈ 2.16 µM), an MIC (Candida albicans) of 2 µg/mL (≈ 1.08 µM) and an MHC (Erythrocyte) of over 128 µg/mL. The MIC (Salmonella typhimurium [7]) was 32 µg/mL (≈ 17.3 µM), the Activity (Salmonella typhimurium [8]) was “Dose-Dependent Effect” and the “log(activity)” value (Salmonella typhimurium [9]) was 3. The viability at 3 h, 1 times of MIC [10] was over 90%, the inhibition (RAW264.7 [11]) was “Active” and the inhibition (RAW264.7 [12]) was “Active”. The inhibition (RAW264.7 [13]) was “Active”, the inhibition (RAW264.7 [14]) was “Active” and the inhibition (RAW264.7 [15]) was “Active”. The Activity (Salmonella typhimurium [16]) was “Active”, the Activity (Salmonella typhimurium [17]) was “Active” and the Activity (Salmonella typhimurium [18]) was “Active”. The Activity (Salmonella typhimurium [19]) was “Active”, the Activity (Salmonella typhimurium [20]) was “Active” and the Activity (Salmonella typhimurium [21]) was “Active”. For the same compound, the Activity (Salmonella typhimurium [22]) was “Active”, the Activity (Salmonella typhimurium [23]) was “Active” and the Activity (Salmonella typhimurium [24]) was “Active”. For the same compound, the Activity (Salmonella typhimurium [25]) was “Active”, the Activity (Salmonella typhimurium [26]) was “Active” and the Activity (Cell membrane [27]) was “Active”. For the same compound, the Activity (Cell membrane [28]) was “Active”, the Activity (Cell membrane [29]) was “Active” and the Activity (Cell membrane [30]) was “Active”. For the same compound, the Activity (Cell membrane [31]) was “Active” and the Activity (Cell membrane [32]) was “Active”.
